Earlier results as cited in patent publication US11202800B1, “Methods for treating emotional cognitive disconnect” (priority 2013, dated 2021).

Columns and labels:
[1] = tested on: Ca^2+ plus calmodulin-stimulated reactions; details: in rats
[2] = tested on: Ca^2+ plus calmodulin dependent phosphorylation of synapsin I; details: in rats

Structure (SMILES): [Mg+2] [Mg^2+, magnesium]
- Mg^2+ concentration range in which Ca^2+ plus calmodulin-stimulated reactions are maximally active [1]: 30 to 50 mM
- Mg^2+ concentration above which Ca^2+ plus calmodulin dependent phosphorylation of synapsin I is progressively inhibited [2]: above 5 mM
